The target of one data set is bovine serum albumin (Bos taurus, UniProt P02769). Conditions: known drugs of Example 5, described as poor, medium or high binders; cited from earlier work.
For data set [1] the following is noted: Williams and Lemke 2002; (1), (2) number the two pKa of doxycycline; cited from earlier work.
Data set [2] in a line: pKa by colloidal gold pH titration (ratio O.D. 620 nm/525 nm). Conditions: colloidal gold pH titration of 1 mM drugs, 1% DMSO, (2) number the two pKa of doxycycline; for pKa: buffered gold colloid (gold nanoparticle solution), pKa observed.
Experimental: (§1) A series of 50 mM buffers of pH 2-12 was then prepared (phosphate [pH 2, 3, 6, 7, 8], acetate [pH 4 and 5] and borate [pH 9, 10, 11, 12]), which were further diluted 5-fold with the gold colloid solution. The final pH of the 10 mM buffered colloid so obtained was then recorded. Drug solutions (10 μl, 100 mM in DMSO) were then pipeted in 1 mL of the buffered colloid and the mixture was vortex-mixed. After 30 minutes of incubation, the solutions were pipeted in 96-well polystyrene plates and the O.D. at 620 nm and 525 nm were recorded. The ratio O.D. 620 nm/O.D. 525 nm was calculated. This ratio relates to the agglutination of the colloid (i.e., the higher the ratio, the higher the agglutination). Typically, the ionization of a molecule creates charge(s) that may facilitate the agglutination of the colloid. Thus, titering a molecule with buffered gold colloids over a range of pHs can allow one to determine the ionization constant from the interpolated mid-point of the sigmoid curve drawn from agglutinated to unagglutinated colloid as a function of pH.
The nature of a further data set: physchem. The following applies: pKa observed.
For another data set, the system named is serum albumin. The following applies: literature (Goodman and Gillman 1996); cited from earlier work.
Data set [3] can be described thus: Redox potential with PANI-COOH conductive polymer (O.D. 450 nm). It is filed as physicochemical. Conditions: 100 μM drug, PANI-COOH at pH 4, 10 minutes room temperature; inferred from 450 nm signal. How it is done:
The redox potential of known drugs were assayed. The known drug at a given final concentration (100 μM) was introduced in a buffered solution of a conductive polymer (poly[aniline-2-carboxylic acid], PANI-COOH) at pH 4. The solution was mixed and incubated at room temperature (10 minutes). The optical density was read at 450 nm. A sample blank containing the drug and phtalate buffer was prepared, incubated and read in the same way. The OD 450 nm of the blank solution was subtracted from the OD 450 nm of the conductive polymer reaction mixture. […] A linear relationship was observed between the 450 nm signal and the reduction potential of the known molecules (FIG. 15.), which allowed the inference of the reduction potential of NCEs.
Screening a library of 60 well-known drugs allowed identification of bromocriptine as a relatively strong […] (E=−364 mV), prazosin and chlorpropamide as relatively strong […] (E=747 and 848 mV), which is in agreement with literature data (Wardman P. (1989) Reduction potentials of one-electron couples involving free radicals in aqueous solution. J. Phys. Chem. Ref. Data 18, 1637-1755). Although a reductant drug may exert beneficial therapeutic effects, an oxidant may be toxic. […]

For a further data set, the target named is human serum albumin (Homo sapiens, UniProt P02768). Conditions: literature (Westphal 1986); cited from earlier work.
Sequence of human serum albumin (P02768 25-609): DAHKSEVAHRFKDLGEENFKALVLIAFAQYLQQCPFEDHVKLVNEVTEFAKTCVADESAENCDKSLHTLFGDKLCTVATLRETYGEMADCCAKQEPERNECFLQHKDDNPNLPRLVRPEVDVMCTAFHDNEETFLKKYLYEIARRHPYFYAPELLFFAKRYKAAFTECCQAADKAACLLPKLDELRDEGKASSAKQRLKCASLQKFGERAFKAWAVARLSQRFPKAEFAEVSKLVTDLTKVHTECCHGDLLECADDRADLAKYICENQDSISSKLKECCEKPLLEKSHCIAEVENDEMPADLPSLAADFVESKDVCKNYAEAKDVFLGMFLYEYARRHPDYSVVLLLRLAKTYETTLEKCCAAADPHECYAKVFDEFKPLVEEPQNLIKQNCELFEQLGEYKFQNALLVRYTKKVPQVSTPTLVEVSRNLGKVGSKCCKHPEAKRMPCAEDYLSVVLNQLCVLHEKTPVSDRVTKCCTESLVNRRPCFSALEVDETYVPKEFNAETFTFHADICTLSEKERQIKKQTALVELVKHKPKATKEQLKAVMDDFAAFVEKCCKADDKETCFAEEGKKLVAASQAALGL
The conditions of data set [4]: literature (Goodman and Gillman 1996); cited from earlier work.
Data set [5] in a line: Volume of distribution in humans. The following applies: human.

The structures appear in SMILES notation.

Results on twelve molecules are retold here after US20090029391A1, “REAGENTS AND METHODS FOR THE DETERMINATION OF PK/ADME-TOX CHARACTERISTICS OF NEW CHEMICAL ENTITIES AND OF DRUG CANDIDATES” (priority 2007, published 2009).

Broadly, the Vd is a proportionality between amount in the body and measured concentration, not a real space. A higher Vd goes with extensive tissue distribution.

Sequence of bovine serum albumin (P02769 25-607): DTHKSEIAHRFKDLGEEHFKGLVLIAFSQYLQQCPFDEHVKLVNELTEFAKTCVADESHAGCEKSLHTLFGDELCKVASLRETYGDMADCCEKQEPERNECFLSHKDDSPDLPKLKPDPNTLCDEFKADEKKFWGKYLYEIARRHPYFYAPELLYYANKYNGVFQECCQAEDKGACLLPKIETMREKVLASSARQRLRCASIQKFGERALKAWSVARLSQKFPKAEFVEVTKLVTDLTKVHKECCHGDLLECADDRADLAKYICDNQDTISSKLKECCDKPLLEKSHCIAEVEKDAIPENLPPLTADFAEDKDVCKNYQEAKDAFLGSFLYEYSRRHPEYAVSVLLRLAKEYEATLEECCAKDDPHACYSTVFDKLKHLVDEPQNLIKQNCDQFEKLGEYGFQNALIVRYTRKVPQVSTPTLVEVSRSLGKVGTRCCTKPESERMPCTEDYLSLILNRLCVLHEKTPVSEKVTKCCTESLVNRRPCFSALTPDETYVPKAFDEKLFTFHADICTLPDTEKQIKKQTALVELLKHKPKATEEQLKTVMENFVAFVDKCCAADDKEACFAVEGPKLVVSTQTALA
Experimental for physchem: as §1

For `CC(=O)Oc1ccccc1C(=O)O` [Aspirin, Acetylsalicylic acid], the “binder class to the protein (bovine serum albumin)” value (shortened to “binder class to the protein”) on bovine serum albumin was “poor binders”.

In the case of `CN(C)CCC(c1ccc(Cl)cc1)c1ccccn1` (stereo not shown) [Chlorpheniramine], on bovine serum albumin, the “binder class to the protein” value is “medium binders”. For the molecule `Nc1ccc(S(=O)(=O)c2ccc(N)cc2)cc1` [Dapsone], in data set [1], the pKa from reference was 2.4. The pKa in data set [2] was 3.9. With `CC[C@H]1OC(=O)[C@H](C)[C@@H](O[C@H]2C[C@@](C)(OC)[C@@H](O)[C@H](C)O2)[C@H](C)[C@@H](O[C@@H]2O[C@H](C)C[C@H](N(C)C)[C@H]2O)[C@](C)(O)C[C@@H](C)C(=O)[C@H](C)[C@@H](O)[C@]1(C)O` [Erythromycine, Erythromycin], the “binder class to the protein” value on bovine serum albumin is given as “medium binders”. Moreover, the pKa in data set [2] was determined as 6.9.

In the case of `CCOc1ccc2ccccc2c1C(=O)N[C@@H]1C(=O)N2[C@@H]1SC(C)(C)[C@@H]2C(=O)O` [Nafcillin], the pKa in “physchem” was 3. `CC(=O)Nc1ccc(O)cc1` [Paracetamol]: in data set [1], the pKa from reference is reported as 9.4. For the same molecule, the pKa observed in [2] came to 9.5. As for `C=C[C@H]1C[N@@]2CC[C@H]1C[C@@H]2[C@@H](O)c1ccnc2ccc(OC)cc12` [Quinidine], the pKa in [2] was 7.4. With `C=CC1=C(C)/C(=C/c2[nH]c(Cc3[nH]c(/C=C4\NC(=O)C(C)=C4C=C)c(C)c3CCC(=O)O)c(CCC(=O)O)c2C)NC1=O` [bilirubin], in the data set with serum albumin, the “bound by serum albumin / by the protein in plasma” value is recorded as about 100%. As for `CCCNC(=O)NS(=O)(=O)c1ccc(Cl)cc1` [chlorpropamide], in [3], the “reduction potential E” value was 848 mV.

Consider `C[C@H]1O[C@@H](O[C@H]2[C@@H](O)C[C@H](O[C@H]3[C@@H](O)C[C@H](O[C@H]4CC[C@@]5(C)[C@H](CC[C@@H]6[C@@H]5C[C@@H](O)[C@]5(C)[C@@H](C7=CC(=O)OC7)CC[C@]65O)C4)O[C@@H]3C)O[C@@H]2C)C[C@H](O)[C@@H]1O` [digoxin, Digoxin], for which the “apparent affinity for human serum albumin determined by dialysis” value on human serum albumin was 1.85.10^5 liters per mole. Regarding `COc1cc2nc(N3CCN(C(=O)c4ccco4)CC3)nc(N)c2cc1OC` [prazosin], the “reduction potential E” value in [3] turned out to be 747 mV.

As for `Cn1c(=O)c2[nH]cnc2n(C)c1=O` [theophylline], the “volume of distribution observed experimentally” value in [4] is given as 0.50±0.16 liters per Kg. Besides, the volume of distribution (Vd) in [5] worked out at 0.551 L/kg.
